Key:
Triglyceridspiegel = assay: Rat test: lowering of triglyceride level; assay type: in vivo; details: 100 mg/kg pro Tag (in zwei gleichen Gaben), normolipämische Ratten
Description: (§1) Im Versuch an Ratten wurde mit 100 mg/kg pro Tag (in zwei gleichen Gaben) eine deutliche Senkung des Triglyceridspiegels erreicht, z.B. 34% Senkung gegenüber der Kontrolle bei normolipämischen Ratten. Vorteilhafterweise wurde gleichzeitig der Harnsäurespiegel um 38 % gesenkt. Es läßt sich daher mit einer Substanz eine Therapie der Hyperlipidämie und der Hyperurikämie durchführen. Dadurch können unerwünschte Wechselwirkungen, wie sie bei der sonst nötigen Behandlung mit je einem Wirkstoff gegen die Hyperurikämie und gegen die Hyperlipidämie auftreten können, von vornherein vermieden werden.

Gesamtcholesterinspiegel = assay: Lowering of total cholesterol level in humans; assay type: in vivo; details: 600 mg pro Tag, beim Menschen
Description: Mit 600 mg pro Tag ließ sich z.B. bei Verwendung der 11-Oxo-11-H-pyrido[2,1-b]chinazolin-2-carbonsäure beim Menschen der Gesamtcholesterinspiegel um etwa 25 % senken.

[1] = parameters: species or system Patienten; details: in vivo
Source text: Gegenüber den bekannten Mitteln zur Behandlung der Hyperlipidämie haben die erfindungsgemäß verwendbaren Verbindungen, etwa die 11-Oxo-11-H pyrido-[2,1-b]-chinazolin-2-carbonsäure und ihre Salze, den Vorzug besserer Verträglichkeit.

Harnsäurespiegel = assay: Rat test: lowering of uric acid level; assay type: in vivo; details: 100 mg/kg pro Tag (in zwei gleichen Gaben), Ratten
Description: as §1

Gesamtcholesterin = assay: Study in 8 healthy volunteers on a defined purine-rich diet: total cholesterol; assay type: in vivo, gesunde Probanden; details: nach 8 Tagen (nach Therapieende), 600 mg/Tag from day 4, n = 8, before therapy (4 days) 196 ± 70 mg/dl, before diet 201 ± 48 mg/dl
Description: In einer anderen Studie erhielten 8 gesunde Probanden eine definierte purinreiche Diät über die Prüfdauer von 8 Tagen. Nach 4 Tagen wurde mit der Verabreichung von 11-Oxo-11-H-pyrido[2,1-b]-chinazolin-2-carbonsäure (600 mg/Tag) begonnen.
Gesamtcholesterin (x); n = 8
Das Ergebnis bedeutet eine l8prozentige Senkung des Gesamtcholesterins.

For `O=C(O)c1ccc2nc3ccccn3c(=O)c2c1` [11-Oxo-11-H-pyrido[2,1-b]chinazolin-2-carbonsäure], the “Senkung des Triglyceridspiegels gegenüber der Kontrolle” value (Triglyceridspiegel) was 34%, the “Senkung des Gesamtcholesterinspiegels” value (Gesamtcholesterinspiegel) was roughly 25% and the “präparatespezifische Nebenwirkungen” value [1] was “keinerlei präparatespezifischen Nebenwirkungen”. For the same compound, the “Senkung des Harnsäurespiegels” value (Harnsäurespiegel) was 38% and the “Gesamtcholesterin (x)” value (Gesamtcholesterin) was 160 ± 48 mg/dL.
